From patent US8741940B2, “Microbicidal composition” (Rohm and Haas Company, priority 2005, dated 2014)
Values joined by “and” are separate entries in the source; they are usually repeats but may differ in a detail not shown here. Equal entries are not always repeated. Where two headings read alike, the source gives them in different places.

Tests used:
Assay type in all cases: cell-based
Details in all cases: for Qa (concentration of MBIT producing the end point, MIC): alone where Qb = 0, otherwise in the mixture
[1] = tested on: Escherichia coli (E. coli—ATCC #8739); experiment: Synergy test, microtiter plate high resolution MIC assay, bacterium in M9GY medium; parameters: Qa (First Component A) / Qb (Second Component B): unit: ppm
Procedure, shortened: (§1)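 High-resolution microtiter MICs spanned 2 to 10,000 ppm active, tested alongside varying BBIT or MBIT as component A. E. coli was run at ~5×10^6/mL in M9GY (0.2% glucose, 0.1% yeast extract) at 30 °C; C. albicans and A. niger at 5×10^5/mL in PDB. Synergy index is Qa/QA + Qb/QB, with >1 indicating antagonism.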

[2] = tested on: Candida albicans (C. albicans—ATCC 10231); experiment: Synergy test, microtiter plate high resolution MIC assay, yeast in PDB medium; parameters: Qb (Second Component B) / Qa (First Component A): unit: ppm
Procedure, shortened: as §1

[3] = tested on: Aspergillus niger (A. niger—ATCC 16404); experiment: Synergy test, microtiter plate high resolution MIC assay, mold in PDB medium; parameters: Qb (Second Component B) / Qa (First Component A): unit: ppm
Procedure, shortened: as §1

[4] = A=MBIT, B=2-bromo-2-nitro-propane-1,3-diol (BNPD), E. coli 8739 - M9GY, 24 hours
[5] = A=MBIT, B=BBIT, E. coli 8739 - M9GY, 24 hours
[6] = A=MBIT, B=Benzalkonium chloride (Hyamine 3500), E. coli 8739 - M9GY, 24 hours
[7] = A=MBIT, B=Benzisothiazolinone (BIT), E. coli 8739 - M9GY, 24 hours
[8] = A=MBIT, B=Benzyl alcohol, E. coli 8739 - M9GY, 24 hours
[9] = A=MBIT, B=Caprylyl glycol, E. coli 8739 - M9GY, 24 hours
[10] = A=MBIT, B=Chlorphenesin, E. coli 8739 - M9GY, 24 hours
[11] = A=MBIT, B=DMDM Hydantoin (DMDMH), E. coli 8739 - M9GY, 24 hours
[12] = A=MBIT, B=dithio-2,2′-bis(N-methylbenzamide) (DTBMA), E. coli 8739 - M9GY, 24 hours
[13] = A=MBIT, B=2-bromo-2-nitro-propane-1,3-diol (BNPD), C. albicans 10231 - PDB, 24 hours
[14] = A=MBIT, B=BBIT, C. albicans 10231 - PDB, 48 hours
[15] = A=MBIT, B=Benzalkonium chloride (Hyamine 3500), C. albicans 10231 - PDB, 24 hours
[16] = A=MBIT, B=Benzisothiazolinone (BIT), C. albicans 10231 - PDB, 48 hours
[17] = A=MBIT, B=Benzyl alcohol, C. albicans 10231 - PDB, 48 hours
[18] = A=MBIT, B=Caprylyl glycol, C. albicans 10231 - PDB, 24 hours
[19] = A=MBIT, B=Chlorphenesin, C. albicans 10231 - PDB, 72 hours
[20] = A=MBIT, B=DMDM Hydantoin (DMDMH), C. albicans 10231 - PDB, 24 hours
[21] = A=MBIT, B=dithio-2,2′-bis(N-methylbenzamide) (DTBMA), C. albicans 10231 - PDB, 24 hours
[22] = C. albicans 10231, PDB, 24 hours
[23] = C. albicans 10231, PDB, 48 hours
[24] = C. albicans 10231, PDB, 72 hours
[25] = A=MBIT, B=2-bromo-2-nitro-propane-1,3-diol (BNPD), A. niger 16404 - PDB, 4 days
[26] = A=MBIT, B=BBIT, A. niger 16404 - PDB, 4 days
[27] = A=MBIT, B=Benzalkonium chloride (Hyamine 3500), A. niger 16404 - PDB, 4 days
[28] = A=MBIT, B=Benzisothiazolinone (BIT), A. niger 16404 - PDB, 7 days
[29] = A=MBIT, B=Benzyl alcohol, A. niger 16404 - PDB, 4 days
[30] = A=MBIT, B=Caprylyl glycol, A. niger 16404 - PDB, 4 days
[31] = A=MBIT, B=Chlorphenesin, A. niger 16404 - PDB, 3 days
[32] = A=MBIT, B=DMDM Hydantoin (DMDMH), A. niger 16404 - PDB, 3 days
[33] = A=MBIT, B=dithio-2,2′-bis(N-methylbenzamide) (DTBMA), A. niger 16404 - PDB, 3 days

SMILES: Cn1sc2ccccc2c1=O [MBIT, N-methyl-1,2-benzisothiazolin-3-one]
- Qa (First Component A) [1]: 10 and 7.5
- Qa (concentration of First Component A = MBIT at the end point) [1]: 10
- SI (synergy index) [1]: 1.00
- Qa (First Component A) [1, 4]: 10
- SI (synergy index) [1, 4]: 1.00
- Qa (First Component A) [1, 5]: 10
- SI (synergy index) [1, 5]: 1.00
- Qa (First Component A) [1, 6]: 100
- SI (synergy index) [1, 6]: 1.00
- Qa (First Component A) [1, 7]: 10
- SI (synergy index) [1, 7]: 1.00
- Qa (First Component A) [1, 8]: 10
- SI (synergy index) [1, 8]: 1.00
- Qa (First Component A) [1, 9]: 10
- SI (synergy index) [1, 9]: 1.00
- Qa (First Component A) [1, 10]: 15
- SI (synergy index) [1, 10]: 1.00
- Qa (First Component A) [1, 11]: 10
- SI (synergy index) [1, 11]: 1.00
- Qa (First Component A) [1, 12]: 15
- SI (synergy index) [1, 12]: 1.00
- SI (synergy index) ([1]; E. coli 8739, M9GY, 24 hours): 1.00
- Qa (concentration of MBIT producing the end point, MIC) ([1]; E. coli 8739, M9GY, 24 hours): 10 ppm and 15 ppm
- SI (synergy index) ([1]; E. coli 8739, M9GY, 48 hours): 1.00
- Qa (concentration of MBIT producing the end point, MIC) ([1]; E. coli 8739, M9GY, 48 hours): 20 ppm and 15 ppm
- SI (synergy index) ([1]; E. coli 8739, M9GY, 72 hours): 1.00
- Qa (concentration of MBIT producing the end point, MIC) ([1]; E. coli 8739, M9GY, 72 hours): 15 ppm
- Qa (First Component A) [2]: 8 and 10
- Qa (concentration of First Component A = MBIT at the end point) [2]: 7.5
- SI (synergy index) [2]: 1.00
- Qa (First Component A) [2, 13]: 8
- SI (synergy index) [2, 13]: 1.00
- Qa (First Component A) [2, 14]: 10
- SI (synergy index) [2, 14]: 1.00
- Qa (First Component A) [2, 15]: 8
- SI (synergy index) [2, 15]: 1.00
- Qa (First Component A) [2, 16]: 10
- SI (synergy index) [2, 16]: 1.00
- Qa (First Component A) [2, 17]: 10
- SI (synergy index) [2, 17]: 1.00
- Qa (First Component A) [2, 18]: 10
- SI (synergy index) [2, 18]: 1.00
- Qa (First Component A) [2, 19]: 10
- SI (synergy index) [2, 19]: 1.00
- Qa (First Component A) [2, 20]: 7.5
- SI (synergy index) [2, 20]: 1.00
- Qa (First Component A) [2, 21]: 10
- SI (synergy index) [2, 21]: 1.00
- SI (synergy index) [2, 22]: 1.00
- Qa (concentration of MBIT producing the end point, MIC) [2, 22]: 7.5 ppm and 10 ppm and 15 ppm and 8 ppm
- SI (synergy index) [2, 23]: 1.00
- Qa (concentration of MBIT producing the end point, MIC) [2, 23]: 7.5 ppm and 10 ppm
- SI (synergy index) [2, 24]: 1.00
- Qa (concentration of MBIT producing the end point, MIC) [2, 24]: 15 ppm
- Qa (First Component A) [3]: 30 and 40
- Qa (concentration of First Component A = MBIT at the end point) [3]: 40
- SI (synergy index) [3]: 1.00
- SI (synergy index) ([3]; A. niger 16404, PDB, 3 days): 1.00
- Qa (concentration of MBIT producing the end point, MIC) ([3]; A. niger 16404, PDB, 3 days): 40 ppm and 20 ppm and 30 ppm
- SI (synergy index) ([3]; A. niger 16404, PDB, 4 days): 1.00
- Qa (concentration of MBIT producing the end point, MIC) ([3]; A. niger 16404, PDB, 4 days): 30 ppm and 40 ppm
- SI (synergy index) ([3]; A. niger 16404, PDB, 7 days): 1.00
- Qa (concentration of MBIT producing the end point, MIC) ([3]; A. niger 16404, PDB, 7 days): 50 ppm and 60 ppm
- Qa (First Component A) [3, 25]: 30
- SI (synergy index) [3, 25]: 1.00
- Qa (First Component A) [3, 26]: 40
- SI (synergy index) [3, 26]: 1.00
- Qa (First Component A) [3, 27]: 30
- SI (synergy index) [3, 27]: 1.00
- Qa (First Component A) [3, 28]: 50
- SI (synergy index) [3, 28]: 1.00
- Qa (First Component A) [3, 29]: 50
- SI (synergy index) [3, 29]: 1.00
- Qa (First Component A) [3, 30]: 20
- SI (synergy index) [3, 30]: 1.00
- Qa (First Component A) [3, 31]: 20
- SI (synergy index) [3, 31]: 1.00
- Qa (First Component A) [3, 32]: 40
- SI (synergy index) [3, 32]: 1.00
- Qa (First Component A) [3, 33]: 30
- SI (synergy index) [3, 33]: 1.00
